# Test results reported in article PMC6425950 (Bioorganic & medicinal chemistry, 2019).
# Test system: HCV genotype 1b RNA replication in Huh-7 cells (subgenomic HCV replicon)
# Experiment: HCV subgenomic replicon assay, inhibition of HCV RNA replication
# Assay type: cell-based, Hepatitis C virus
# Conditions: HCV genotype 1b replicon, Huh-7 cells
row,Compound,anti-HCV activity: none at concentration up to [µM]
1,"Nc1nc2c(ncn2[C@@H]2O[C@H](CO)[C@@H](O)[C@@]2(F)Cl)c(=O)[nH]1 [Compound 48, 2-Amino-9-((2R,3R,4R,5R)-3-chloro-3-fluoro-4-hydroxy-5-(hydroxymethyl)tetrahydrofuran-2-yl)-1,9-dihydro-6H-purin-6-one]",> 10
2,"Nc1nc2c(ncn2[C@@H]2O[C@H](CO)[C@@H](O)[C@@]2(F)Br)c(=O)[nH]1 [Compound 49, 2-amino-9-((2R,3R,4R,5R)-3-bromo-3-fluoro-4-hydroxy-5-(hydroxymethyl)tetrahydrofuran-2-yl)-1,9-dihydro-6H-purin-6-one]",> 10
3,"CC(C)OC(=O)[C@H](C)NP(=O)(OC[C@H]1O[C@@H](n2cnc3c(=O)[nH]c(N)nc32)[C@](F)(Cl)[C@@H]1O)Oc1ccccc1 (stereo partly drawn) [Compound 50, Isopropyl ((((2R,3R,4R,5R)-5-(2-amino-6-oxo-1,6-dihydro-9H-purin-9-yl)-4-chloro-4-fluoro-3-hydroxytetrahydrofuran-2-yl)methoxy)(phenoxy)phosphoryl)-L-alaninate]",> 10
4,"CC(C)OC(=O)[C@H](C)N[P@](=O)(OC[C@H]1O[C@@H](n2cnc3c(=O)[nH]c(N)nc32)[C@](F)(Br)[C@@H]1O)Oc1ccccc1 [Compound 51, Isopropyl ((((2R,3R,4R,5R)-5-(2-amino-6-oxo-1,6-dihydro-9H-purin-9-yl)-4-bromo-4-fluoro-3-hydroxytetrahydrofuran-2-yl)methoxy)(phenoxy)phosphoryl)-L-alaninate]",> 10

# Same assay, conditions: HCV replicon; statement in conclusion
row,Compound,anti-HCV activity (in words)
1,"CC(C)OC(=O)[C@H](C)NP(=O)(OC[C@H]1O[C@@H](n2ccc(=O)[nH]c2=O)[C@](F)(Cl)[C@@H]1O)Oc1ccccc1 (stereo partly drawn) [Compound 19, Isopropyl ((((2R,3R,4R,5R)-4-chloro-5-(2,4-dioxo-3,4-dihydropyrimidin-1(2H)-yl)-4-fluoro-3-hydroxytetrahydrofuran-2-yl)methoxy)(phenoxy)phosphoryl)-L-alaninate]",low to sub-micromolar range
2,"CC(C)OC(=O)[C@H](C)NP(=O)(OC[C@H]1O[C@@H](n2ccc(=O)[nH]c2=O)[C@](F)(Br)[C@@H]1O)Oc1ccccc1 (stereo partly drawn) [Compound 20, Isopropyl ((((2R,3R,4R,5R)-4-bromo-5-(2,4-dioxo-3,4-dihydropyrimidin-1(2H)-yl)-4-fluoro-3-hydroxytetrahydrofuran-2-yl)methoxy)(phenoxy)phosphoryl)-L-alaninate]",low to sub-micromolar range
3,"Nc1ccn([C@@H]2O[C@H](CO)[C@@H](O)[C@@]2(F)Br)c(=O)n1 [Compound 27, 4-Amino-1-((2R,3R,4R, 5R)-3-bromo-3-fluoro-4-hydroxy-5-(hydroxymethyl)tetrahydrofuran-2-yl)pyrimidin-2(lH)-one]",low to sub-micromolar range
4,"CC(C)OC(=O)[C@H](C)NP(=O)(OC[C@H]1O[C@@H](n2ccc(N)nc2=O)[C@](F)(Br)[C@@H]1O)Oc1ccccc1 (stereo partly drawn) [Compound 32, Isopropyl ((((2R,3R,4R,5R)-5-(4-amino-2-oxopyrimidin-1(2H)-yl)-4-bromo-4-fluoro-3-hydroxytetrahydrofuran-2-yl)methoxy)(phenoxy)phosphoryl)-L-alaninate]",low to sub-micromolar range
5,"CC(C)OC(=O)[C@H](C)NP(=O)(OC[C@H]1O[C@@H](n2ccc(N)nc2=O)[C@](F)(Cl)[C@@H]1O)Oc1ccccc1 (stereo partly drawn) [Compound 35, Isopropyl ((((2R,3R,4R,5R)-5-(4-amino-2-oxopyrimidin-1(2H)-yl)-4-chloro-4-fluoro-3-hydroxytetrahydrofuran-2-yl)methoxy) (phenoxy)phosphoryl)-L-alaninate]",low to sub-micromolar range
6,"CC(C)OC(=O)[C@H](C)NP(=O)(OC[C@H]1O[C@@H](n2cnc3c(N)ncnc32)[C@](F)(Cl)[C@@H]1O)Oc1ccccc1 (stereo partly drawn) [Compound 42, Isopropyl ((((2R,3R,4R,5R)-5-(6-amino-9H-purin-9-yl)-4-chloro-4-fluoro-3-hydroxytetrahydrofuran-2-yl)methoxy) (phenoxy)phosphoryl)-L-alaninate]",low to sub-micromolar range

# Same assay, conditions: Hepatitis C virus, GETYPE1B, Huh-7, read-out: Anti-HCV activity EC90
row,Compound,EC90 [µM]
1,"Nc1ccn([C@@H]2O[C@H](CO)[C@@H](O)[C@@]2(F)Cl)c(=O)n1 [Compound 26, 4-Amino-1-((2R,3R,4R,5R)-3-chloro-3-fluoro-4-hydroxy-5-(hydroxymethyl)tetrahydrofuran-2-yl)pyrimidin-2(1H)-one]",> 10
2,"Nc1ncnc2c1ncn2[C@@H]1O[C@H](CO)[C@@H](O)[C@@]1(F)Cl [Compound 40, (2R, 3R, 4R, 5R)-5-(6-Amino-9H-purin-9-yl)-4-chloro-4-fluoro-2-(hydroxymethyl)tetrahydrofuran-3-ol]",> 10
3,"Nc1ncnc2c1ncn2[C@@H]1O[C@H](CO)[C@@H](O)[C@@]1(F)Br [Compound 41, (2R, 3R, 4R, 5R)-5-(6-Amino-9H-purin-9-yl)-4-bromo-4-fluoro-2-(hydroxymethyl)tetrahydrofuran-3-ol]",> 10
4,"CC(C)OC(=O)[C@H](C)NP(=O)(OC[C@H]1O[C@@H](n2cnc3c(N)ncnc32)[C@](F)(Br)[C@@H]1O)Oc1ccccc1 (stereo partly drawn) [Compound 43, Isopropyl ((((2R,3R,4R,5R)-5-(6-amino-9H-purin-9-yl)-4-bromo-4-fluoro-3-hydroxytetrahydrofuran-2-yl)methoxy)(phenoxy)phosphoryl)-L-alaninate]",> 10
5,"Nc1nc2c(ncn2[C@@H]2O[C@H](CO)[C@@H](O)[C@@]2(F)Br)c(=O)[nH]1 [Compound 49, 2-amino-9-((2R,3R,4R,5R)-3-bromo-3-fluoro-4-hydroxy-5-(hydroxymethyl)tetrahydrofuran-2-yl)-1,9-dihydro-6H-purin-6-one]",> 10
6,"CC(C)OC(=O)[C@H](C)NP(=O)(OC[C@H]1O[C@@H](n2cnc3c(=O)[nH]c(N)nc32)[C@](F)(Cl)[C@@H]1O)Oc1ccccc1 (stereo partly drawn) [Compound 50, Isopropyl ((((2R,3R,4R,5R)-5-(2-amino-6-oxo-1,6-dihydro-9H-purin-9-yl)-4-chloro-4-fluoro-3-hydroxytetrahydrofuran-2-yl)methoxy)(phenoxy)phosphoryl)-L-alaninate]",> 10
